The results in this text go back to patent US20210393549A1, “New use of R-enantiomer of adrenergic beta 2 receptor agonists for treatment of inflammatory bowel disease and its extra intestinal manifestations” (priority 2018, published 2021).

The subject of assay [1] is DSS induced acute colitis. The source says:
In one embodiment, IBD was induced in mice by add DSS into drink water for 7 days. […] (Cooper, S. et al., Clinic pathologic study of dextran sulfate sodium experimental murine colitis, Laboratory Investigation, vol. 69, no. 2, p. 238-249, 1993)
The mice were scarified at day 10th for anatomy and histology evaluations. […] Each of the above histological features was scored individually and added together which is then collectively expressed as “histological score”, for quantitative evaluation (Cooper, S. et al., above).
Male C57BL mice (8-10 weeks, 18-20 g) were grouped into control (drinking water only), DSS and DSS plus treatment groups (n=5). Acute colitis was induced by feeding mice with 2% (w/v) dextran sulfate sodium (DSS) (molecular mass 36-50 kDa) added to the drinking water given ad libitum for 7 days. At the end of seventh day, DSS was removed and animals received only drinking water for 2 days. The animals were euthanized for anatomical and histological examination at the tenth day after DSS ingestion.
R-salbutamol (R-S) (1 mg/kg, S-salbutamol (S-S) (1 mg/kg), R-terbutaline (R-T) (1 mg/kg), S-terbutaline (S-T) (1 mg/kg), R-bambuterol (10 mg/kg), S-bambuterol (S-B) (10 mg/kg), R-clenbuterol (R-C) (1 mg/kg), RS-clenbuterol (RS-C) (2 mg/kg) were administered i.g. daily, starting from the 2nd day of DSS induction for consecutive 8 days. Dexamethasone (Dex), 1 mg/kg) was used as a reference drug.
Evaluation of disease symptoms and histological changes Disease activity index (DAI): Animals were monitored daily for weight, water/food consumption, morbidity, stool consistency and fecal blood. […] The colon length was recorded as an indicator of inflammation. The entire colon was cut open longitudinally and gently flushed with sterile phosphate-buffered saline (PBS) to remove any traces of feces for pathology preparation. Colon segments were fixed in 10% neutral buffered formalin. Tissues were embedded in paraffin, sectioned, mounted on slides. H&E-stained paraffin section images were acquired. Pathological evaluation was conducted in a blinded manner.
Histological Score: the scores were given as follows: epithelium, 0=normal morphology, 1=loss of goblet cells, 2=loss of goblet cells in large areas, 3=loss of crypts, and 4=loss of crypts in large areas; and inflammation cells infiltration, 0=no infiltrate, 1=infiltrate around the crypt basis, 2=infiltrate reaching the muscularis mucosae, 3=extensive infiltration reaching the muscularis mucosae and thickening of the mucosa with abundant edema, and 4=infiltration of the submucosa. Data were presented as mean±the standard deviation (SD).

Assay [2] has as its system signal transducer and activator of transcription protein (Stat 2). Kind of assay: Stat 2 mRNA expression in psoriasis mice. Particulars: plasma of psoriasis mice, dose-response fashion. The format is in vivo. The source says: There was enhanced expression of mRNA of Janus kinase 2 (JAK2), a non-receptor tyrosine kinase, and the signal transducer and activator of transcription protein (Stat 2) in the plasma of psoriasis mice in comparison of control, Indicating an increase of JAK2 and Stat 2 proteins. These over expression of mRNA was inhibited by R-salbutamol in a dose-response fashion. (FIG. 3 left & right)

For assay [3], the system named is acne, maliaria, hives and eczema. Briefly: Topical use on acne, maliaria, hives and eczema. Type of assay: in vivo.
Assay [4] relates to DNCB induced allergic contact dermatitis. Briefly: DNCB induced allergic contact dermatitis model (eczema). The format is in vivo, mice. The protocol: Mice was shaved at abdominal area DNCB (100 μL 0.5%) is dissolved and applied to the shaved skin to induce Atopica dermatitis for 2 consecutive days. At day 8th, DNCB was applied to both inner and outer surfaces of ears to induce eczema. Treatment of R-salbutamol and indomethacin were given orally at day 1st for consecutive 8 days. The mice were scarified at day 9th for examination and evaluation. Mice were divided into four groups (n=8), namely A, Control; B. Eczema (DNCB); C. Eczema plus R-Salbutamol of 0.05, 0.1 or 0.2 mg/kg; D. Eczema plus indomethacin of 5 mg/kg. The inflammation scores were evaluated according to swelling, erythema, scratch and thickness of both ears. [table]

The next assay deals with psoriasis and eczema. Briefly: Oral administration in rats, psoriasis and eczema. Type of assay: in vivo.
Assay [5] has as its system DSS induced sub-acute colitis. The format is in vivo. Particulars: treatments started at day 7th till day 22nd.
The subject of assay [6] is DSS induced sub-acute colitis. Briefly: Prolonged (two weeks) treatment in DSS induced sub-acute colitis. Type of assay: in vivo, mice. Particulars: evaluation at 23rd day, salbutamol 1 mg/kg, bambuterol 10 mg/kg. The source says:
Same as example 2, except. 1), Two Weeks Treatment within a Three Weeks of Study
DSS was removed from drinking water at the end of 1st week. The treatments were started at 1st day for consecutive 14 days (2 weeks). Only drinking water given for the 3rd week. The evaluation and examination were made at 23rd day as did in example 1.

The mark [7] stands for this setting: acute DSS colitis, compared with untreated DSS mice.
Where [8] appears, read: oral 8 days, R-Salbutamol 0.05, 0.1 or 0.2 mg/kg, indomethacin 5 mg/kg.

On to `CC(C)(C)NC[C@H](O)c1ccc(O)c(CO)c1` [R-S, R-salbutamol], for which the “colon histology (H&E), in words” value in assay [1] (Example 1, compared with untreated DSS mice) was “greatly improved”. Also, in assay [1] (acute DSS colitis), the “body weight, in words” value was “increased”. Also, in assay [1] (setting [7]), the “DAI, in words” value is reported as “significantly improved”; the “FOB, in words” value is “reduced”; the “histological score, in words” value was “significantly reduced”; the “length of colon-rector / shortening of large bowel, in words” value was “shortening of large bowel was reduced”. The “Hist score (histological score)” value in assay [1] (epithelium 0-4 plus infiltration 0-4, tenth day, 1 mg/kg (R-B, S-B 10 mg/kg; RS-C 2 mg/kg), mean ± SD) stood at 4 ± 0.5. The “FOB (fecal occult blood)” value in assay [1] (grade 0, 2, 4, i.g. daily 8 days, 1 mg/kg (R-B, S-B 10 mg/kg; RS-C 2 mg/kg), mean ± SD) came out at 0.5 ± 0.5. In assay [1] (i.g. daily 8 days, 1 mg/kg (R-B, S-B 10 mg/kg; RS-C 2 mg/kg), mean ± SD), the Weight came out at 93 ± 2.8. Besides, the “DAI (disease active index)” value in assay [1] (score 0 to 12, i.g. daily 8 days from 2nd day of DSS, 1 mg/kg (R-B, S-B 10 mg/kg; RS-C 2 mg/kg), n=5) stood at 4. The “Col Length (colon length)” value in assay [1] (tenth day, i.g. daily 8 days, 1 mg/kg (R-B, S-B 10 mg/kg; RS-C 2 mg/kg), mean ± SD) was 7.7 ± 0.6. Moreover, the “over expression of mRNA of Stat 2” value in assay [2] is reported as “inhibited”. Also, in assay [3], the “symptoms of acne, maliaria, hives and eczema” value is given as “significantly alleviated”. For the same compound, the ear skin histopathology entry in assay [4] (R-Salbutamol 0.05 mg/kg) is listed as “little effects on eczema”. For the same compound, the ear skin histopathology entry in assay [4] (R-Salbutamol 0.1 mg/kg) is given as “significant reduced monocyte infiltration”. The ear skin histopathology result in assay [4] (R-salbutamol 0.2 mg/kg) was “further reductions in monocyte infiltration and epidermal keratinization”. In addition, in assay [4] (setting [8]), the “erythema score of both ears” value was “significantly alleviated or prevented” and the “thickness score of both ears” value is “significantly alleviated or prevented”. Also, the “eczema histology and inflammatory infiltration” value in assay [4] (oral 8 days, dose-dependent response, indomethacin 5 mg/kg) is “significantly improved”. Besides, the psoriasis and eczema entry in the assay with psoriasis and eczema was “significantly ameliorate”. Also, the “therapeutic effects in DSS induced IBD mice” value in assay [5] is on record as “significant therapeutic effects”. In addition, in assay [6], the “DAI, in words” value is “return toward normal” and the “histological score, in words” value is “return toward normal”.
